Assay results: patent US20040167028A1, “Method of introducing a substance into plant tissue” (HAMAMATSU PHOTONICS K.K., priority 2002, published 2004)
Like-named read-outs stand apart in the source and are kept apart here.

Test system: tomato plant
Text: According to the method of the invention, information relating to the amount, speed and site of introduction of the substance introduced into the plant tissue can be obtained, for example, using a positron imaging apparatus. With a positron imaging apparatus, information on the measuring target is obtained by introducing a substance labeled with positron-emitting RI as a tracer into a living body, and measuring the pair of gamma-rays produced as the positrons emitted from the RI-labeled substance are annihilated against electrons in the substance (see, for example, Japanese Patent Application Laid-Open No. 9-33658).
FIG. 5 is a view showing the basic construction of a positron imaging apparatus. The apparatus shown in this drawing comprises a pair of two-dimensional radiation detectors 60 and 70. The two-dimensional radiation detectors 60 and 70 in turn comprise scintillator arrays 61,71 each composed of a plurality of scintillators, and photodetectors 62,72 for detection of scintillation light generated by incidence of the gamma-rays on the scintillator arrays 61,71. The radiation detectors 60,70 are housed in separate detector cases 65,75 with the radiation incidence planes of the scintillator arrays 61,71 facing each other.
In this construction, a pair of gamma-rays emitted from a measuring target B (a plant, according to the invention) placed on a prescribed measuring surface S between the radiation detectors 60,70 are each detected by the radiation detectors 60,70. The detection signals are outputted through connected circuit systems 63,73 having amplifier circuits, etc. for amplification of the detection signals. The outputted amplification signals are inputted into a signal processing circuit 80, and the signal processing circuit 80 identifies coincident electron/positron annihilation events and calculates the position of the annihilation, based on the detection signals from the two radiation detectors 60,70.
Tomato (Merryroad variety) approximately 4 weeks after sprouting was used as the test plant. After removing a leaf at the end of the 6th side branch from the bottom of the main stem, the end was cut in the water for use as the absorption site (conductive tissue-exposed side branch) FIG. 6 is a schematic view showing the arrangement of the main stem 3 and side branches 2 of the tomato plant used in this experiment. The absorption site was located at the end of the side branch 2 extending toward the left in FIG. 6.
FIG. 7 is an integrated image obtained from the positron imaging apparatus, with the integrated image positioned to correspond to the positions of the main stem and side branch in FIG. 6.
Next, all of the leaves on the substance-absorbed side branch 2 of the tomato plant used in Comparative Example 1 were removed. […] FIG. 8 is the integrated image obtained from the positron imaging apparatus, with the integrated image positioned to correspond to the positions of the, main stem and side branch in FIG. 6.
Using a different tomato plant from that used in Example 1 (the same variety but a different plant), a leaf at the end of the 6th side branch from the bottom of the main stem was removed in the same manner as Example 1, and the end was cut in the water for use as the absorption site in the same manner as Comparative Example 1. The other leaves on that side branch were shaded by covering them with aluminum foil to inhibit transpiration. FIG. 10 is a schematic view showing the arrangement of the main stem 3 and side branches 2 of the tomato plant used in this experiment. The absorption site was located at the end of the upper side branch 2 of the side branches 2 extending toward the left in FIG. 10.

Compound: O=[N+]([O-])O [^13N-labeled nitric acid]
- migration of the substance in the main stem (integrated image) (Comparative Example 1, side branch with leaves, no inhibition of transpiration, FIG. 7): almost all of the substance migrated downward in the main stem
- introduction of the substance into the side branch (integrated image) (Comparative Example 2, leaves unshaded, no inhibition of transpiration, FIG. 12): very little of the substance had been introduced
- amount of substance introduction (RI accumulation / nitric acid absorption at the node) (Example 1, all leaves of the absorbing side branch removed, versus Comparative Example 1 with leaves, observed for 1 hour, FIG. 9): over twice
- migration of the substance in the main stem (integrated image) (Example 1, leaves of the side branch removed, FIG. 8): Upward migration was also confirmed in the main stem
- amount of substance introduction (RI accumulation at the node) (Example 2, leaves of the absorbing side branch shaded with aluminum foil, versus Comparative Example 2 unshaded, FIG. 13): over twice
- migration of the substance in the main stem (integrated image) (Example 2, leaves shaded to inhibit transpiration, FIG. 11): upward migration occurred in the main stem
- introduction of the substance into the plant (integrated image) (Example 4, sieve tubes of the side branch eliminated by heating at about 100° C., vessels alone, FIG. 16): the substance had been introduced into the plant
